The assay addresses Cathepsin S (Homo sapiens, UniProt P25774). Nature of the assay: Cathepsin S inhibition, fluorogenic peptide substrate kinetic assay. It counts as biochemical. Conditions: Table II; Cathepsin S inhibition constant, pH5.5; read-out: Ki Cat. S. A digest of the protocol:
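Ki values derive from apparent constants fitted to progress curves, corrected for competition with substrate via [S] and Km. Kinetics were monitored at 380 nm excitation/450 nm emission, after substrate addition (Ac-HPVK-ACC, 50 μM final) to start the reaction.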

Cathepsin S, sequence (P25774 115-331, species assumed): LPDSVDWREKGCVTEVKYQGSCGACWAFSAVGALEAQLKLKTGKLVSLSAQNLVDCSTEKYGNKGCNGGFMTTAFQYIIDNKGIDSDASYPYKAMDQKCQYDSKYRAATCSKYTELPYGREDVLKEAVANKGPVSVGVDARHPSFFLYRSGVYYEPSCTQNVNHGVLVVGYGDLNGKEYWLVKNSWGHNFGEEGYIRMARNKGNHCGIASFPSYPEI

`Cc1cc(C(=O)N[C@@H](CC2CCCCC2)C(=O)NCCN2CCc3cc(F)ccc32)c(C(F)(F)F)o1` [Compound 78, 5-Methyl-2-trifluoromethyl-furan-3-carboxylic acid (S)-{2-cyclohexyl-1-[2-(5-fluoro-2,3-dihydro-indol-1-yl)-ethylcarbamoyl]-ethyl}-amide]: the Ki was under 100 nM.

On to `COc1ccc(NC[C@@H](C)NC(=O)[C@H](CCC2CCCCC2)NC(=O)c2cc3ccccc3[nH]2)cc1` [Compound 25, 1H-Indole-2-carboxylic acid {3-cyclohexyl-(1S)-[2-(4-methoxy-phenylamino)-(1R)-methyl-ethylcarbamoyl]-propyl}-amide], for which the Ki is under 10000 nM.

Take `CS(=O)(=O)N1CCC(C(=O)N[C@@H](CC2CCCCC2)C(=O)NCCN2CCc3cc(F)ccc32)CC1` [Compound 77, 1-Methanesulfonyl-piperidine-4-carboxylic acid (S)-{2-cyclohexyl-1-[2-(5-fluoro-2,3-dihydro-indol-1-yl)-ethylcarbamoyl]-ethyl}-amide]: the Ki was under 1000 nM.

Take `O=C(N[C@@H](CC1CCCCC1)C(=O)NCCN1CCc2cc(F)ccc21)c1ccc(Oc2ccccc2)cc1` [Compound 4, N-(S)-{2-cyclohexyl-1-[2-(5-fluoro-2,3-dihydro-indol-1-yl)-ethylcarbamoyl]-ethyl}-4-phenoxy-benzamide]: the inhibition constant (Ki) is under 100 nM.

For `C[C@@H](CNc1ccc(OC(F)(F)F)cc1)NC(=O)[C@H](CC1CCCCC1)NC(=O)O[C@@H]1CCOC1` [Compound 188, {2-Cyclohexyl-1-(S)-[1-(S)-methyl-2-(4-trifluoromethoxy-phenylamino)-ethylcarbamoyl]-ethyl}-carbamic acid tetrahydrofuran-3-(R)-yl ester], the Ki was under 100 nM.

In the case of `CS(=O)(=O)NCc1ccc(C(=O)N[C@@H](CC2CCCCC2)C(=O)NCCN2CCc3cc(F)ccc32)cc1` [Compound 79, N-(S)-{2-cyclohexyl-1-[2-(5-fluoro-2,3-dihydro-indol-1-yl)-ethylcarbamoyl]-ethyl}-4-(methanesulfonylamino-methyl)-benzamide], the Ki was under 100 nM.

`C[C@@H](CNc1ccccc1S(C)(=O)=O)NC(=O)[C@H](CC1CCCCC1)NC(=O)c1ccc(-c2cccc(F)c2)o1` [Compound 116, 5-(3-Fluoro-phenyl)-furan-2-carboxylic acid {2-cyclohexyl-1-(S)-[2-(2-methanesulfonyl-phenylamino)-1-(S)-methyl-ethylcarbamoyl]-ethyl}-amide]: the Ki was under 100 nM.

For the compound `C[C@@H](CNc1ccc(F)cc1)NC(=O)[C@H](CC1CCCCC1)NC(=O)c1ccc(-c2cccc(F)c2)o1` [Compound 126, 5-(3-Fluoro-phenyl)-furan-2-carboxylic acid {2-cyclohexyl-1-(S)-[2-(4-fluoro-phenylamino)-1-(S)-methyl-ethylcarbamoyl]-ethyl}-amide], the Ki is under 100 nM.

For the compound `C[C@@H](CNc1ccc(S(=O)(=O)N2CCOCC2)cc1)NC(=O)[C@H](CC1CCCCC1)NC(=O)c1ccc(-c2cccc(F)c2)o1` [Compound 136, 5-(3-Fluoro-phenyl)-furan-2-carboxylic acid (2-cyclohexyl-1-(S)-{1-(S)-methyl-2-[4-(morpholine-4-sulfonyl)-phenylamino]-ethylcarbamoyl}-ethyl)-amide], the Ki is under 1000 nM.

With `CC(C)(C)C[C@H](NC(=O)OCc1ccccc1)C(=O)N[C@@H](CC(=O)OC(C)(C)C)CN1CCc2cc(F)ccc21` [Compound 158, 3-(S)-(2-(S)-Benzyloxycarbonylamino-4,4-dimethyl-pentanoylamino)-4-(5-fluoro-2,3-dihydro-indol-1-yl)-butyric acid tert-butyl ester], the Ki was under 1000 nM.

Regarding `CS(=O)(=O)N1CCC(Oc2ccc(C(=O)N[C@@H](CC3CCCCC3)C(=O)NCCN3CCc4cc(F)ccc43)cc2)CC1` [Compound 68, N-(S)-{2-cyclohexyl-1-[2-(5-fluoro-2,3-dihydro-indol-1-yl)-ethylcarbamoyl]-ethyl}-4-(1-methanesulfonyl-piperidin-4-yloxy)-benzamide], the Ki is under 1000 nM.

`Cc1nc(-c2ccc(S(=O)(=O)N[C@@H](CC3CCCCC3)C(=O)NCCN3CCc4cc(F)ccc43)s2)cs1` [Compound 237, (S)-3-Cyclohexyl-N-[2-(5-fluoro-2,3-dihydro-indol-1-yl)-ethyl]-2-[5-(2-methyl-thiazol-4-yl)-thiophene-2-sulfonylamino]-propionamide]: the Ki was under 100 nM.

As for `C[C@@H](CNc1ccc(OC(F)(F)F)cc1)NC(=O)[C@H](CC1CCCCC1)NC(=O)c1ccc(-c2ccc(F)cc2)o1` [Compound 103, 5-(4-Fluoro-phenyl)-furan-2-carboxylic acid {2-cyclohexyl-1-(S)-[1-(S)-methyl-2-(4-trifluoromethoxy-phenylamino)-ethylcarbamoyl]-ethyl}-amide], the Ki is under 100 nM.

For `COc1ccc(NC[C@H](COCc2ccccc2)NC(=O)[C@H](CC(C)C)NC(=O)c2cccc(C)c2)cc1` [Compound 35, N-{1-(S)-[1-(R)-Benzyloxymethyl-2-(4-methoxy-phenylamino)-ethylcarbamoyl]-3-methyl-butyl}-3-methyl-benzamide], the Ki is under 100 nM.

With `O=C(NCCN1CCc2cc(F)ccc21)[C@H](CC1CCCCC1)NS(=O)(=O)c1ccc(Oc2ccc(F)cc2)cc1` [Compound 236, (S)-3-Cyclohexyl-N-[2-(5-fluoro-2,3-dihydro-indol-1-yl)-ethyl]-2-[4-(4-fluoro-phenoxy)-benzenesulfonylamino]-propionamide], the Ki is under 1000 nM.

As for `C[C@@H](CNc1cccc(F)c1)NC(=O)[C@H](CC1CCCCC1)NC(=O)c1ccc(-c2cccc(F)c2)o1` [Compound 99, 5-(3-Fluoro-phenyl)-furan-2-carboxylic acid {2-cyclohexyl-1-(S)-[2-(3-fluoro-phenylamino)-1-(S)-methyl-ethylcarbamoyl]-ethyl}-amide], the Ki was under 100 nM.

Consider `C[C@@H](CNc1ccc(OC(F)(F)F)cc1)NC(=O)[C@H](CC1CCCCC1)NC(=O)c1ccc(-c2cccc(F)c2)o1` [Compound 83, 5-(3-Fluoro-phenyl)-furan-2-carboxylic acid {2-cyclohexyl-1-(S)-[1-(S)-methyl-2-(4-trifluoromethoxy-phenylamino)-ethylcarbamoyl]-ethyl}-amide], for which the Ki was under 100 nM.

As to `C[C@@H](CNc1ccccc1Cl)NC(=O)[C@H](CC1CCCCC1)NC(=O)c1ccc(-c2cccc(F)c2)o1` [Compound 113, 5-(3-Fluoro-phenyl)-furan-2-carboxylic acid {1-(S)-[2-(2-chloro-phenylamino)-1-(S)-methyl-ethylcarbamoyl]-2-cyclohexyl-ethyl}-amide], the Ki is under 100 nM.

`C[C@@H](CN1CCc2cc(F)ccc21)NC(=O)[C@H](CC(C)(C)C)NC(=O)Cc1nnn[nH]1` [Compound 179, 4,4-Dimethyl-2-(S)-(2-1H-tetrazol-5-yl-acetylamino)-pentanoic acid [2-(5-fluoro-2,3-dihydro-indol-1-yl)-1-(S)-methyl-ethyl]-amide]: the inhibition constant (Ki) is under 1000 nM.

Regarding `CSc1ccc(NC[C@H](C)NC(=O)[C@H](CC2CCCCC2)NC(=O)c2ccc(-c3cccc(F)c3)o2)cc1` [Compound 117, 5-(3-Fluoro-phenyl)-furan-2-carboxylic acid {2-cyclohexyl-1-(S)-[1-(S)-methyl-2-(4-methylsulfanyl-phenylamino)-ethylcarbamoyl]-ethyl}-amide], the Ki is under 100 nM.

Values taken from patent US20040248887A1, “Inhibitors of cathepsin S” (IRM LLC, priority 2003, published 2004).
